Reference: publication PMC10145360, “Antiplatelet Aggregation Properties of Cirsilineol: A Novel Inhibitor of Blood Coagulation Factor Xa” (Pharmaceuticals, 2023)
Marks after values point to notes of the source that are not given here.

Columns and labels:
[1] = test system: platelet-poor plasma (PPP); assay: Prothrombin time (PT) after administration to mice; assay type: in vivo, mouse; conditions: administered to mice; data not shown
Experimental: (§1) First, the potential cytotoxicity of […] on HUVECs was assessed using the 3-(4,5-dimethylthiazol-2-yl)-2,5-diphenyltetrazolium bromide (MTT) assay. […] The activated partial thromboplastin time (aPTT) and prothrombin time (PT), two coagulation parameters altered by CSL in vitro, were assessed first. We used the direct FXa inhibitor rivaroxaban as a positive control for our experiments. […] In the aPTT experiments, rivaroxaban at 8.38 μM and CSL at 7.23 μM, respectively, doubled the clotting time. Each mouse group (n = 5) received intravenous injections of CSL for 4 consecutive days to validate the in vitro results in an ex vivo experiment. […] In the ex vivo aPTT assays, treatment with CSL at 0.25 mg/kg and rivaroxaban at 0.29 mg/kg, respectively, doubled the clotting time. The average blood volume was determined to be 2 mL based on an estimated circulating blood volume for mice of 72 mL/kg and an average weight of 27 g for each animal used in this investigation. As a result, the estimated concentration of CSL in the peripheral blood after each injection ([…]) was 2.5, 5, 10, or 20 μM, respectively.
(§2) Plasma was taken by centrifuging blood (2000× g for 10 min) at room temperature following dimethyl sulfoxide (DMSO) or CSL administration for 1 h to assess PT and aPTT using a thrombotimer (Behnk Elektronik, Norderstedt, Germany). […] Next, the clotting time was measured.

[2] = test system: human platelet-rich plasma (PRP); assay: In vitro agonist-induced platelet aggregation (aggregometer); assay type: cell-based
Experimental: Figure 3 Effects of CSL on agonist-induced platelet aggregation. Platelet-rich plasma (PRP) was preincubated for 5 min with different concentrations of CSL, Riva, or the vehicle. […] Data are shown as mean values ± SD of five independent experiments. * p < 0.05 vs. D. D = 0.2% DMSO, used as the vehicle control.
(§3) Ten fasting healthy volunteers (aged 24–28; six women and four men) who were free of allergies, cardiovascular problems, carbohydrate, or lipid metabolic abnormalities and had not taken any morning medication had their blood samples taken. None of our subjects used addictive drugs or antioxidant food supplements, and their diets were well balanced. The plasma from the blood samples was immediately spun down (1300× g for 15 min) to separate it from sodium citrate (10.9 mM) and pooled for the following investigations. Next, human blood samples were spun down at room temperature to rapidly separate the PRP. The PRP concentration was adjusted to 1 × 10^9 platelets/mL using a hemocytometer. After being rinsed once in HEPES buffer containing 1 mM CaCl2, the PRP pellet was maintained at room temperature for an additional 30 min. Then, 10 mL of the platelet samples were utilized to measure each clotting time point. The IRB of Kyungpook National University Hospital (Daegu, Republic of Korea) approved this study protocol (KNUH 2012-01-010).
CSL dissolved in DMSO was incubated with human PRP for a specified time (1, 3, 5, or 10 min). […]

[3] = test system: FeCl3-induced carotid artery thrombosis; assay: FeCl3-induced carotid artery thrombosis model; assay type: in vivo, mouse; conditions: mice
Experimental: A mouse model of FeCl3-induced thrombosis was created and used. Male C57BL/6 mice were starved for the entire night before receiving intravenous injections of the relevant drug in 0.2 mL of DMSO and were allowed to sleep. The carotid artery of the animal was exposed. The adventitial surface was covered with a cotton thread (200 μm in diameter) soaked in FeCl3 solution (0.25 M) for 5 min. The wound was flushed with saline solution once the thread had been removed. […] We measured the size and rate of thrombus formation, and we graded our results as follows: no thrombus or small thrombus (75–50 μm), medium thrombus (150–100 μm), massive thrombus (300–200 μm), and more than three thrombi. It was also noted how long it took for an extensive thrombus to obstruct the carotid artery following endothelial damage caused by FeCl3.

platelets = conditions: cited from earlier work
[4] = test system: platelet-poor plasma (PPP); assay: In vitro aPTT clotting time in platelet-poor plasma; design: species or system human; conditions: PPP incubated 15 min
Experimental: (§4) Figure 2 Effects of CSL on clotting time. (A) Platelet-poor plasma (PPP) was incubated with the indicated concentrations of CSL or rivaroxaban (Riva) for 15 min. (B) One hour after administering DMSO, CSL, or Riva, blood was collected from the mice, and PPP was obtained. Then, in vitro aPTT (A) or ex vivo aPTT was measured, as described in the Methods sections. Data are shown as mean values ± SD of five independent experiments. * p < 0.05 vs. D. D = 0.2% DMSO, used as the vehicle control.
as §3
Plasma was taken by centrifuging blood (2000× g for 10 min) at room temperature following dimethyl sulfoxide (DMSO) or CSL administration for 1 h to assess PT and aPTT using a thrombotimer (Behnk Elektronik, Norderstedt, Germany). Micronized silica was utilized as an activator for the aPTT test. Briefly, 100 μL of platelet-poor plasma (PPP) and 100 μL of aPTT assay reagent were combined for 1 min at 37 °C, 100 µL of CaCl2 (20 mM) was added, and the clotting times were noted. […] Next, the clotting time was measured.

[5] = test system: platelet-poor plasma (PPP); assay: Ex vivo aPTT clotting time after intravenous injection; assay type: in vivo, mouse; conditions: mice, intravenous
Experimental: as §1, §4
Male C57BL/6 mice aged 7 weeks (mean weight: 27 g) were purchased from Orient Bio Co., in Sungnam, Republic of Korea, and were subjected to a 12-day acclimatization phase. […]
as §2

[6] = test system: collagen and epinephrine-induced pulmonary thrombosis; assay: Acute pulmonary thrombosis induced by collagen and epinephrine; assay type: in vivo, mouse; conditions: for Mortality %: then collagen + epinephrine, mice; for Scored thrombus formation (Thrombi), lung: graded as thrombi per 25 mm^2 lung field
Experimental: Mice were separated into several groups after being fasted overnight (10 animals each). CSL was dissolved in DMSO and given intravenously to each mouse. After 1 h, the animals received an injection of collagen and epinephrine mixture (500 μg/kg each) to induce acute thrombosis. Each mouse was closely observed for 15 min to see if it had recovered from the acute thrombosis challenge, had been paralyzed, or had passed away. H&E-stained lung tissue slices from five mice were randomly selected for the histologic investigation to determine the extent of pulmonary thrombus development. The number of arteries greater than 20 μm in diameter with any detectable thrombus was counted in each of the five view fields randomly selected from the left lobe in each section (one section per mouse). Twenty-five fields for each group were compared as a result. A total of 60–80 vessels in each segment were imaged using the system (Leica, Germany). The results were graded as the number of thrombi per 25 mm^2 lung field as previously described.

## O=C(NC[C@H]1CN(c2ccc(N3CCOCC3=O)cc2)C(=O)O1)c1ccc(Cl)s1 [Rivaroxaban, rivaroxaban, reference compound]
[1]
  PT: did not change
[2]; ADP 10 μM
  platelet aggregation induced by ADP: did not affect
[2]; U46619 6 μM
  platelet aggregation induced by U46619: did not affect
[2]; collagen 1 μg/mL
  platelet aggregation induced by collagen: did not affect
[2]; thrombin 3 U/mL
  platelet aggregation induced by thrombin: did not affect
[3]; 0.13 mg/kg intravenous
  Scored thrombus formation: 3.5 ± 0.1
  Time to Large Thrombus Formation: 15.3 ± 1.1 min
[3]; 0.26 mg/kg intravenous
  Scored thrombus formation: 3.1 ± 0.3
  Time to Large Thrombus Formation: 21.8 ± 1.9 min
[3]; 0.51 mg/kg intravenous
  Scored thrombus formation: 2.3 ± 0.1
  Time to Large Thrombus Formation: 44.3 ± 3.1 min
platelets; blood taken from patients on rivaroxaban treatment
  platelet aggregation: decreased platelet aggregation
platelets; previous studies
  platelet aggregation brought on by collagen, ADP, thromboxane A2, or thrombin: not to affect
[4]
  concentration that doubled the clotting time (in vitro aPTT): 8.38 µM
[5]
  dose that doubled the clotting time (ex vivo aPTT): 0.29 mg/kg
[6]; 0.13 mg/kg intravenous
  Mortality %: 85 ^# %
  Scored thrombus formation (Thrombi), lung: 3.1 ± 0.1
[6]; 0.26 mg/kg intravenous
  Mortality %: 75 ^# %
  Scored thrombus formation (Thrombi), lung: 2.6 ± 0.1
[6]; 0.51 mg/kg intravenous
  Mortality %: 55 ^# %
  Scored thrombus formation (Thrombi), lung: 1.9 ± 0.2
